Measurements as given in patent US6939888B2, “1-H-3-arylpirrolidine-2,4-dione derivatives” (Bayer Aktiengesellschaft, priority 1994, dated 2005).

Key:
[1] = test system: caterpillars of the diamond-back moth (Plutella maculipennis); test: Plutella test (cabbage leaf dip); type: in vivo; conditions: after 7 days; concentration of active compound 0.001%; cabbage leaves (Brassica olearacea) dipped
Experimental: Plutella Test [table] To produce a suitable preparation of active compound, 1 part by weight of active compound is mixed with the stated amount of solvent and the stated amount of emulsifier, and the concentrate is diluted with water to the desired concentration. Cabbage leaves (Brassica olearacea) are treated by being dipped into the preparation of active compound of the desired concentration and are infested with caterpillars of the diamond-back moth (Plutella maculipennis) while the leaves are still moist. After the specified periods of time, the destruction in % is determined. 100% means that all the caterpillars have been killed; 0% means that none of the caterpillars have been killed.

[2] = test system: greenhouse red spider mite (Tetranychus urticae); test: Tetranychus test (OP resistant), sprayed bean plants; type: in vivo; conditions: after 7 days; concentration of active compound 0.00016%; bean plants (Phaseolus vulgaris) sprayed, all development stages
Experimental: Tetranychus Test (OP Resistant)
To produce a suitable preparation of active compound, 1 part by weight of active compound is mixed with the stated amount of solvent and the stated amount of emulsifier, and the concentrate is diluted with emulsifier-containing water to the desired concentration.
Bean plants (Phaseolus vulgaris) which are severely infested with all development stages of the greenhouse red spider mite (Tetranychus urticae) are sprayed with a preparation of active compound of the desired concentration.
After the specified periods of time, the destruction in % is determined. 100% means that all the spider mites have been killed; 0% means that none of the spider mites have been killed.

CC(=O)OC1=C(c2c(C)cc(C)cc2C)C(=O)NC12CCCCC2 [(B)]
destruction rate [1]: 10%

CC(C)C1(C)NC(=O)C(c2ccc(Cl)cc2Cl)=C1OC(=O)C(C)(C)C (stereo not drawn) [(D)]
destruction rate [2]: no destruction

CCOC(=O)OC1=C(c2ccc(Cl)cc2Cl)C(=O)NC1(C)C(C)C (stereo not drawn) [(E)]
destruction rate [2]: no destruction
